Laboratory results reported in US5853731A, “Thromboxane A2 Receptor antagonism and antioxidant action of cinnamophilin and its derivatives, their pharmaceutical compositions and uses” (National Science Council, priority 1997, dated 1998).
Where two headings read alike, the source gives them in different places.

Columns and labels:
[1] = test system: PGE2 formation; test: Prostaglandin E2 formation caused by arachidonic acid (AA); format: cell-based; conditions: for Prostaglandin E2: caused by AA
[2] = test system: TX synthase; test: Large scale screening test: TX synthase inhibition; format: biochemical
[3] = Antioxidation (absorbance at 500 nm, FeSCN method)
Source text: (Absorbance at 500 nm, using FeSCN method)

[4] = test system: rat thoracic aorta; test: Rat aortic contraction caused by norepinephrine and high potassium (KCl); format: cell-based, Wistar rat; conditions: for K+ contraction (%), Tonic: K+ (80 mM); for K+ contraction (%), Tonic / norepinephrine contraction (%), Phrase (phasic) / norepinephrine contraction (%), Tonic: 15 min; for norepinephrine contraction (%), Phrase (phasic) / norepinephrine contraction (%), Tonic: norepinephrine 3 μM
Protocol: (§1) A. Rat Aortic Contraction
(§2) Wistar rats of either sex weighing 250 g to 300 g were killed by a blow to the head. The thoracic aorta was isolated and excess fat and connective tissue were removed. Vessels were cut into rings of about 5 mm in length and mounted in organ baths containing 5 ml Krebs solution of the following composition (mM): NaCl (118.4), KCl (4.7), CaCl (1.9), MgSO4 (1.2), KH2 PO4 (1.2), NaHCO3 (25.0) and glucose (11.7). The tissue bath solution was maintained at 37° C. and gassed with 95% O2 :5% CO2 mixture. Two stainless steel hooks were inserted into the aortic lumen, one was fixed while the other was connected to a transducer. Aortae were equilibrated in the medium for 90 min with three changes of Krebs solution and maintained under an optimal tension of 1 g before specific experimental protocols were initiated.
(§3) Contraction was recorded isometrically via a force-displacement transducer connected to a Grass polygraph. Aortae were allowed to preincubate for 15 minutes with cinnamophilin before generating the cumulative concentration-response curve with each agonist for 15-30 min at 3 min intervals. Results are expressed as a percentage of the maximal control response for each agonist.
Rat aorta ring were preincubated with lignans or DMSO (0.1% control) at
37° C. for 15 min, then the inducer was added.

[5] = target: T1, rat thoracic aorta (Rattus norvegicus, UniProt P34978); test: Rat aortic contraction caused by U-46619; format: cell-based, Wistar rat; conditions: for activity at 0.3 µM / activity at 1 µM / activity at 3 µM / activity at 10 µM: rat, read-out: Contraction (% of maximal contraction); for activity at 0.3 µM: cinnamophilin 0.3 μM; for activity at 1 µM: cinnamophilin 1 μM; for activity at 3 µM: cinnamophilin 3 μM; for activity at 10 µM: cinnamophilin 10 μM
T1 construct: The thoracic aorta was isolated and excess fat and connective tissue were removed; from tissue; host or cells: thoracic aorta rings of Wistar rats
T1 sequence (P34978 1-341): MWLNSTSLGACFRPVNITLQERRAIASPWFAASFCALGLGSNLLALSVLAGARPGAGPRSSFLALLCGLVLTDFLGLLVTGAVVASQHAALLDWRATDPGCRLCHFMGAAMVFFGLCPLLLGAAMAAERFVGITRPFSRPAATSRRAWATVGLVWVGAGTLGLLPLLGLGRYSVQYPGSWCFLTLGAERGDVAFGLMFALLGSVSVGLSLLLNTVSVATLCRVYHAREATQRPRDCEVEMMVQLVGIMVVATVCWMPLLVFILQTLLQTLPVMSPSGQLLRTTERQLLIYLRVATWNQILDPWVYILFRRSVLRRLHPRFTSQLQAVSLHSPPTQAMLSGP
Protocol: as §1, §2, §3

[6] = test system: TXA2 receptor; test: Large scale screening test: TXA2 receptor antagonism; format: biochemical
[7] = test system: cAMP formation; test: cAMP formation caused by arachidonic acid (AA); format: cell-based; conditions: for cAMP: caused by AA
[8] = test system: thromboxane B2 formation; test: Thromboxane B2 formation caused by arachidonic acid (AA); format: cell-based; conditions: for Thromboxane B2: caused by AA

In the case of `COc1cc(CC(C)C(C)C(=O)c2ccc(O)c(OC)c2)ccc1O` (centres unmarked) [Compound 1, cinnamophilin], the “PGE2 level” value ([1]; 0.03-10 μM, AA) is reported as “increase PGE2 and cAMP levels”, the “Prostaglandin E2” value ([1]; conc 0.01 μM) is reported as 40 ± 10 ng/mL and the “Prostaglandin E2” value ([1]; conc 0.03 μM) is reported as 75 ± 15 ng/mL. For the same molecule, the “Prostaglandin E2” value ([1]; conc 0.1 μM) was 115 ± 15 ng/mL, the “Prostaglandin E2” value ([1]; conc 0.3 μM) was 155 ± 29 ng/mL and the “Prostaglandin E2” value ([1]; conc 1 μM) was 205 ± 19 ng/mL. The “Prostaglandin E2” value ([1]; conc 3 μM) was 245 ± 20 ng/mL, the “Prostaglandin E2” value ([1]; conc 10 μM) was 2665 ± 21 ng/mL and the “TX synthase inhibitory property” value [2] was “TX synthase inhibitory”. For the same molecule, the “antioxidation capability” value ([3]; 20 μM, compared with α-tocopherol at same concentration) was “lower than α-tocopherol at the same concentration”, the “Absorbance at 500 nm” value ([3]; 20 μM, induce time 0, control 0.047) was 0.045 and the “Absorbance at 500 nm” value ([3]; 20 μM, induce time 4, control 0.084) was 0.076. The “Absorbance at 500 nm” value ([3]; 20 μM, induce time 7, control 0.201) was 0.146, the “Absorbance at 500 nm” value ([3]; 20 μM, induce time 10, control 0.343) was 0.176 and the “Absorbance at 500 nm” value ([3]; 20 μM, induce time 16) was 0.346. For the same molecule, the “Absorbance at 500 nm” value ([3]; 20 μM, induce time 19) was 0.399, the “Absorbance at 500 nm” value ([3]; 20 μM, induce time 22) was 0.508 and the “Absorbance at 500 nm” value ([3]; 20 μM, induce time 25) was 0.796. The “Absorbance at 500 nm” value ([3]; 20 μM, induce time 28) was 1.301, the “inhibitory effect on fatty oil peroxidation” value ([3]; 40 μM) was “potential inhibitory effect on fatty oil peroxidation” and the “Absorbance at 500 nm” value ([3]; 40 μM, induce time 0, control 0.047) was 0.037. The “Absorbance at 500 nm” value ([3]; 40 μM, induce time 4, control 0.084) was 0.056, the “Absorbance at 500 nm” value ([3]; 40 μM, induce time 7, control 0.201) was 0.082 and the “Absorbance at 500 nm” value ([3]; 40 μM, induce time 10, control 0.343) was 0.116. For the same molecule, the “Absorbance at 500 nm” value ([3]; 40 μM, induce time 16) was 0.156, the “Absorbance at 500 nm” value ([3]; 40 μM, induce time 19) was 0.204 and the “Absorbance at 500 nm” value ([3]; 40 μM, induce time 22) was 0.256. For the same molecule, the “Absorbance at 500 nm” value ([3]; 40 μM, induce time 25) was 0.282, the “Absorbance at 500 nm” value ([3]; 40 μM, induce time 28) was 0.349 and the “Absorbance at 500 nm” value ([3]; 40 μM, induce time 31) was 0.405. The “Absorbance at 500 nm” value ([3]; 40 μM, induce time 34) was 0.453, the “Absorbance at 500 nm” value ([3]; 40 μM, induce time 37) was 0.525 and the “Absorbance at 500 nm” value ([3]; 40 μM, induce time 40) was 0.687. For the same molecule, the “antioxidation capability versus control” value ([3]; compared with 0.5% DMSO as control) was “potential antioxidation capable comparing to 0.5% DMSO as control”, the “K+ contraction (%), Tonic” value ([4]; conc 1 μM) was 60.2 ± 1.5% and the “K+ contraction (%), Tonic” value ([4]; conc 3 μM) was 36.6 ± 4.7%. The “K+ contraction (%), Tonic” value ([4]; conc 10 μM) was 5.2 ± 2.3%, the “K+ contraction (%), Tonic” value ([4]; conc 50 μM) was 4.5 ± 3.2% and the “phasic contractions” value ([4]; noradrenaline and high potassium (80 mM)) was “inhibited the phasic contractions”. For the same molecule, the “norepinephrine contraction (%), Phrase (phasic)” value ([4]; conc 3 μM) was 121.8 ± 7.2%, the “norepinephrine contraction (%), Phrase (phasic)” value ([4]; conc 5 μM) was 100.4 ± 9.7% and the “norepinephrine contraction (%), Phrase (phasic)” value ([4]; conc 10 μM) was 69.3 ± 4.0%. For the same molecule, the “norepinephrine contraction (%), Phrase (phasic)” value ([4]; conc 50 μM) was 65.9 ± 11.3%, the “norepinephrine contraction (%), Tonic” value ([4]; conc 3 μM) was 90.1 ± 5.5% and the “norepinephrine contraction (%), Tonic” value ([4]; conc 5 μM) was 77.1 ± 5.7%. For the same molecule, the “norepinephrine contraction (%), Tonic” value ([4]; conc 10 μM) was 27.9 ± 0.5%, the “norepinephrine contraction (%), Tonic” value ([4]; conc 50 μM) was 14.6 ± 1.5% and the Kb ([5]; against U-46619, 0.5% DMSO as control, read-out: pA2, rat aortic contraction induced by U-46619 (converted)) was 50.1 nM. For the same molecule, the activity at 0.3 µM ([5]; U-46619 0.005 μM) was 0%, the activity at 0.3 µM ([5]; U-46619 0.01 μM) was 8 ± 2% and the activity at 0.3 µM ([5]; U-46619 0.02 μM) was 16 ± 4.9%. The activity at 0.3 µM ([5]; U-46619 0.05 μM) was 35 ± 2%, the activity at 0.3 µM ([5]; U-46619 0.1 μM) was 52 ± 3% and the activity at 0.3 µM ([5]; U-46619 0.2 μM) was 65 ± 4%. The activity at 0.3 µM ([5]; U-46619 0.5 μM) was 79 ± 2%, the activity at 0.3 µM ([5]; U-46619 1 μM) was 85 ± 4% and the activity at 0.3 µM ([5]; U-46619 2 μM) was 92 ± 4%. It also gave an activity at 1 µM ([5]; U-46619 0.02 μM) of 3%, an activity at 1 µM ([5]; U-46619 0.05 μM) of 11 ± 2% and an activity at 1 µM ([5]; U-46619 0.1 μM) of 22 ± 3%. The activity at 1 µM ([5]; U-46619 0.2 μM) was 35 ± 3.2%, the activity at 1 µM ([5]; U-46619 0.5 μM) was 53 ± 3.1% and the activity at 1 µM ([5]; U-46619 1 μM) was 55 ± 4%. The activity at 1 µM ([5]; U-46619 2 μM) was 81 ± 4%, the activity at 1 µM ([5]; U-46619 5 μM) was 88 ± 3% and the activity at 3 µM ([5]; U-46619 0.05 μM) was 0%. For the same molecule, the activity at 3 µM ([5]; U-46619 0.1 μM) was 8 ± 3.7%, the activity at 3 µM ([5]; U-46619 0.2 μM) was 15 ± 4.3% and the activity at 3 µM ([5]; U-46619 0.5 μM) was 34 ± 5.6%. It also gave an activity at 3 µM ([5]; U-46619 1 μM) of 50 ± 5.6%, an activity at 3 µM ([5]; U-46619 2 μM) of 65 ± 5% and an activity at 3 µM ([5]; U-46619 5 μM) of 81 ± 3%. It also gave an activity at 3 µM ([5]; U-46619 10 μM) of 90 ± 3%, an activity at 10 µM ([5]; U-46619 0.2 μM) of 6 ± 4.3% and an activity at 10 µM ([5]; U-46619 0.5 μM) of 15 ± 3.9%. It also gave an activity at 10 µM ([5]; U-46619 1 μM) of 31 ± 3.8%, an activity at 10 µM ([5]; U-46619 2 μM) of 45 ± 3% and an activity at 10 µM ([5]; U-46619 5 μM) of 65 ± 5%. For the same molecule, the activity at 10 µM ([5]; U-46619 10 μM) was 86 ± 4%, the “TXA2 receptor antagonizing property” value [6] was “TXA2 receptor antagonizing properties” and the “cAMP level” value ([7]; 0.03-10 μM, AA) was “increase PGE2 and cAMP levels”. The cAMP ([7]; conc 1 μM) was 22 ± 3 pmol/mL, the cAMP ([7]; conc 3 μM) was 29 ± 3 pmol/mL and the cAMP ([7]; conc 10 μM) was 35 ± 2 pmol/mL. For the same molecule, the “TXA2 formation caused by AA” value ([8]; 0.03-10 μM) was “inhibit markedly the TXA2 formation”, the “Thromboxane B2” value ([8]; conc 0.01 μM) was 371 ± 35 ng/mL and the “Thromboxane B2” value ([8]; conc 0.03 μM) was 278 ± 25 ng/mL. For the same molecule, the “Thromboxane B2” value ([8]; conc 0.1 μM) was 200 ± 41 ng/mL, the “Thromboxane B2” value ([8]; conc 0.3 μM) was 128 ± 25 ng/mL and the “Thromboxane B2” value ([8]; conc 1 μM) was 69 ± 25 ng/mL. For the same molecule, the “Thromboxane B2” value ([8]; conc 3 μM) was 28 ± 10 ng/mL and the “Thromboxane B2” value ([8]; conc 10 μM) was 20 ± 5 ng/mL.
